# Data taken from PubChem BioAssay (NCI).
#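 Grown in 96-well plates, cells were treated for 48 hours with each compound at five concentrations. Insufficient inhibition: endpoint recorded as highest concentration tested. GI50 is the concentration that inhibits growth by half. TGI: concentration producing complete growth inhibition.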
# What was measured:
# Assay in all cases: NCI tumour cell line growth inhibition, 48 h
# DMS 114 small cell lung = test system: DMS 114 small cell lung
# DMS 273 small cell lung = test system: DMS 273 small cell lung
# HOP-18 NSCLC = test system: HOP-18 NSCLC
# KM20L2 colon = test system: KM20L2 colon
# M19-MEL melanoma = test system: M19-MEL melanoma
# SNB-78 CNS = test system: SNB-78 CNS
# XF 498 CNS = test system: XF 498 CNS
# RXF-631 renal = test system: RXF-631 renal
# MDA-N = test system: MDA-N
SMILES,TGI (DMS 114 small cell lung) [µM],TGI (DMS 273 small cell lung) [µM],TGI (HOP-18 NSCLC) [µM],TGI (KM20L2 colon) [µM],TGI (M19-MEL melanoma) [µM],TGI (SNB-78 CNS) [µM],TGI (XF 498 CNS) [µM],TGI (RXF-631 renal) [µM],TGI (MDA-N) [µM],other results
NCC(NC(=O)OCc1ccccc1)C(=O)O (centres undefined),> 50,> 50,> 50,> 50,> 50,> 50,,,,
CC1=C(c2cc(C(=O)Nc3ccc(Cl)c(Cl)c3)nc(N)n2)Sc2ccccc2N1,> 100,> 100,> 100,> 100,> 100,> 100,> 100,,,
CC(=O)OC1C(CCl)OC(N=[N+]=[N-])C(OC(C)=O)C1OC(C)=O (centres undefined),> 100,> 100,,> 100,> 100,,> 100,> 100,,
N#CCC(=O)N/N=C1\C(=O)N(c2ccc(Cl)cc2)C(=O)C(=O)C1c1nc2ccccc2o1 (centres undefined),> 100,> 100,> 100,> 100,> 100,> 100,,> 100,,
Clc1ccc(OC2CCO2)cc1Cl (centres undefined),> 100,> 100,> 100,> 100,> 100,> 100,,> 100,,
O=C(O)C#CCO,> 100,> 100,,,> 100,> 100,> 100,> 100,,
O=c1c2ccccc2c(=O)c2c1cc(Cl)c1[nH]c3c([nH]c12)c(Cl)cc1c(=O)c2ccccc2c(=O)c13,> 100,> 100,,> 100,> 100,> 100,,,,
O=C(CCCc1ccccn1)c1ccccc1,,,,,,,,,> 100,
Cc1cc(C(=O)N2CCN(Cc3ccccc3)CC2)c(C)o1,> 100,,> 100,> 100,> 100,> 100,> 100,,,
C[C@H]1CC(=O)C2=CCCC3(SCCCS3)[C@@H]2[C@H]1CO,> 100,> 100,> 100,,> 100,,> 100,> 100,,
C=CCN(/C=C1\C(=O)O[C@H](COC)[C@@]2(C)C1=C(O)C(=O)C1=C2[C@H](OC(C)=O)C[C@]2(C)C(=O)CC[C@@H]12)CC=C,,,,,,,,,20,GI50 (MDA-N): 5.91 µM
COC(=O)C1CCC(Nc2cccc(C(F)(F)F)c2)=N1 (centres undefined),> 100,> 100,> 100,,,> 100,> 100,> 100,,
O=C(O)C1CCCCN1C(=O)c1ccccc1 (centres undefined),> 100,> 100,> 100,> 100,> 100,> 100,> 100,> 100,,
CCN(CC)CCNC(=O)c1cccc2cc3ccccc3nc12,19.2,24.3,88.5,,16.6,57,,32.8,,
CCN(CC)C(=S)SC1CCOP(=O)(N(CCCl)CCCl)N1C (centres undefined),0.553,> 79.4,> 100,> 100,14.8,> 100,,,> 100,
O=C(O)CCCCn1cnc2c(=S)nc[nH]c21,,,,,,,,,> 100,
CC[O-].Cc1ccc2cccc([O-])c2n1.Cc1ccc2cccc([O-])c2n1.Cc1ccc2cccc([O-])c2n1.[Ti+4],> 59.3,> 67.7,> 92.6,> 100,27.7,> 100,58.3,> 65.4,,GI50 (DMS 114 small cell lung): 21.9 µM; GI50 (DMS 273 small cell lung): > 33.3 µM; GI50 (HOP-18 NSCLC): 41.1 µM; GI50 (KM20L2 colon): > 54.2 µM; GI50 (M19-MEL melanoma): 14 µM; GI50 (RXF-631 renal): 18.8 µM; GI50 (SNB-78 CNS): 59.7 µM; GI50 (XF 498 CNS): 17.3 µM
COc1cc2cc[n+]3c4cc(OC)c(OC)cc4c(C)cc3c2cc1OC,> 100,> 100,> 100,> 100,> 100,> 100,> 100,> 100,,
O=C(O)CCC1(Br)CCCCC(Br)C1=O (centres undefined),> 100,> 100,> 100,> 100,> 100,> 100,> 100,,,
CN1c2ccccc2S(=O)(=O)n2c(COc3ccc(Cl)cc3)nnc21,,,,,,,,,> 100,

SMILES,TGI (DMS 114 small cell lung) [µM],TGI (DMS 273 small cell lung) [µM],TGI (HOP-18 NSCLC) [µM],TGI (KM20L2 colon) [µM],TGI (M19-MEL melanoma) [µM],TGI (SNB-78 CNS) [µM],TGI (XF 498 CNS) [µM],TGI (RXF-631 renal) [µM],TGI (MDA-N) [µM],other results
CCC1CC(=O)N(SCC(N)C(=O)O)C1=O (centres undefined),,,,,,,,,> 100,
CN(c1ccccc1)C1C(=O)N(c2ccccc2)C1/C=C/c1ccccc1 (centres undefined),,> 100,,,> 100,> 100,,,,
CCC[CH2][Sn]([CH2]CCC)([O]C(=O)c1nccnc1N)[O]C(=O)c1nccnc1N,,2.12,3.8,2.95,1.49,1.57,2.68,,,GI50 (DMS 273 small cell lung): 0.869 µM; GI50 (HOP-18 NSCLC): 2.32 µM; GI50 (KM20L2 colon): 1.59 µM; GI50 (SNB-78 CNS): 0.388 µM; GI50 (XF 498 CNS): 1.38 µM
O=C(Nc1ccccc1Br)c1cccc([N+](=O)[O-])c1O,18,> 48.8,> 25.1,36.7,12.9,> 84.8,,> 100,,
Cc1cc(C)cc(Sc2c([N+](=O)[O-])ncn2C)c1,34.4,25.8,14.4,> 100,84.1,58.9,59.5,51.3,,
COc1cc([C@@H]2c3cc4c(cc3[C@H](O)[C@H]3COC(=O)[C@H]23)OCO4)cc(OC)c1OC,,,> 100,,,> 100,> 100,,0.5,
Cc1ccccc1N=Nc1c(O)[nH]c2ccccc12,,,,,,,,,> 100,
COc1cc2c3c(n(C)c(=O)c2cc1OC)-c1cc2c(cc1/C3=C\CCCBr)OCO2,,,,,,,,,> 100,GI50 (MDA-N): > 100 µM
CCc1c(Cl)nc(Cl)nc1Cl,,,,,,,,,10.8,
O=C1/C(=C/c2ccccc2)CCC/C1=C\c1ccccc1,24.3,21.5,38.7,22.2,6.98,> 87.9,,50.5,7.71,
CC1(C)C(=S)C(C)(C)C1=S,,,,,,,,,> 100,
CC(=O)OC1CCC2(C)C(=CCC3C2CCC2(C)C(C(C)C(=O)O)CCC32)C1 (centres undefined),,,,,,,,,> 100,
CC(C)(C)[Si](C)(C)O/N=C\c1ccc(O[Si](C)(C)C(C)(C)C)cc1,75.3,> 100,> 100,> 100,> 100,> 100,83,53.5,,
COC(=O)c1ccc([N+](=O)[O-])c(O)c1,,,,,,,,,> 100,
O=C(NNC(=O)c1ccncc1)c1ccncc1,,,,,,,,,> 100,
C[C@H]1CC[C@@H]2[C@@H](C)[C@H]3[C@H](C[C@H]4[C@@H]5CC=C6C[C@@H](O)CC[C@]6(C)[C@H]5C[C@H](O)[C@]34C)N2C1,,,,,,,,,> 100,
CC(C)c1cccc(C(C)C)c1NC(=O)C(=O)C(C(=O)c1ccc2ccccc2c1)C1OC(=O)c2ccccc21 (centres undefined),> 100,,,,> 100,> 100,,,,
O=S1(=O)CS(=O)(=O)OCCCO1,,,,,,,,,> 100,
C/C(=N/NC(=O)C(N)=O)C(CC(C(=O)Nc1ccccc1C)/C(C)=N\NC(=O)C(N)=O)C(=O)Nc1ccccc1C (centres undefined),,,,> 100,> 100,> 100,,,,
CCOc1ccc(N=Nc2ccc3oc(=O)c(C(=O)Nc4ccc(OC)cc4)cc3c2)cc1,,> 100,,> 100,91.7,82.8,,,,
